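The concentration for 50% growth inhibition is given as GI50. TGI: total growth inhibition.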
Assays:
Assay in all cases: NCI-60 cell line screen, 384-well format
UACC-257 melanoma = system: UACC-257 melanoma
HOP-92 NSCLC = system: HOP-92 NSCLC
ACHN renal = system: ACHN renal
MOLT-4 leukemia = system: MOLT-4 leukemia
RPMI-8226 leukemia = system: RPMI-8226 leukemia
SF-268 CNS = system: SF-268 CNS
OVCAR-3 ovarian = system: OVCAR-3 ovarian
SK-MEL-2 melanoma = system: SK-MEL-2 melanoma
NCI-H23 lung = system: NCI-H23 lung
A549 NSCLC = system: A549 NSCLC
SNB-19 CNS = system: SNB-19 CNS
MDA-MB-468 breast = system: MDA-MB-468 breast
HS 578T breast = system: HS 578T breast
MCF7 breast = system: MCF7 breast
NCI-H522 lung = system: NCI-H522 lung
IGROV1 ovarian = system: IGROV1 ovarian
K-562 leukemia = system: K-562 leukemia
SK-OV-3 ovarian = system: SK-OV-3 ovarian
SK-MEL-5 melanoma = system: SK-MEL-5 melanoma
EKVX NSCLC = system: EKVX NSCLC
SF-539 CNS = system: SF-539 CNS
OVCAR-5 ovarian = system: OVCAR-5 ovarian
SNB-75 CNS = system: SNB-75 CNS
HCC-2998 colon = system: HCC-2998 colon

Q: Which GI50 (UACC-257 melanoma) does the source give for COCCOc1cc(F)c2c(Nc3ccc(NC(=O)Cn4cc(C(C)C)nn4)cc3)ncnc2c1 here?
A: 60.6 µM

Q: And the TGI (UACC-257 melanoma)?
A: > 100 µM

Q: And the GI50 (HOP-92 NSCLC)?
A: 30.7 µM

Q: What about the TGI (HOP-92 NSCLC) of the same molecule?
A: > 100 µM

Q: And the GI50 (ACHN renal)?
A: > 100 µM

Q: What about the TGI (ACHN renal) of the same molecule?
A: > 100 µM

Q: And the GI50 (MOLT-4 leukemia)?
A: 3.68 µM

Q: And the TGI (MOLT-4 leukemia)?
A: 18.7 µM

Q: And the GI50 (RPMI-8226 leukemia)?
A: 5.06 µM

Q: What about the TGI (RPMI-8226 leukemia) of the same molecule?
A: 34.3 µM

Q: And the GI50 (SF-268 CNS)?
A: 43.1 µM

Q: And the TGI (SF-268 CNS)?
A: > 100 µM

Q: And the GI50 (OVCAR-3 ovarian)?
A: 50.7 µM

Q: And the TGI (OVCAR-3 ovarian)?
A: > 100 µM

Q: What about the GI50 (SK-MEL-2 melanoma) of the same molecule?
A: 66.7 µM

Q: What about the TGI (SK-MEL-2 melanoma) of the same molecule?
A: > 100 µM

Q: And the GI50 (NCI-H23 lung)?
A: 35.6 µM

Q: What about the TGI (NCI-H23 lung) of the same molecule?
A: > 100 µM

Q: And the GI50 (A549 NSCLC)?
A: 53.2 µM

Q: And the TGI (A549 NSCLC)?
A: > 100 µM

Q: And the GI50 (SNB-19 CNS)?
A: > 100 µM

Q: And the TGI (SNB-19 CNS)?
A: > 100 µM

Q: What about the GI50 (MDA-MB-468 breast) of the same molecule?
A: 7.69 µM

Q: And the TGI (MDA-MB-468 breast)?
A: > 100 µM

Q: What about the GI50 (HS 578T breast) of the same molecule?
A: 12.2 µM

Q: And the TGI (HS 578T breast)?
A: 82.3 µM

Q: What about the GI50 (MCF7 breast) of the same molecule?
A: 21.9 µM

Q: What about the TGI (MCF7 breast) of the same molecule?
A: > 100 µM

Q: And the GI50 (NCI-H522 lung)?
A: 18.1 µM

Q: What about the TGI (NCI-H522 lung) of the same molecule?
A: 92.3 µM

Q: What about the GI50 (IGROV1 ovarian) of the same molecule?
A: 53.5 µM

Q: What about the TGI (IGROV1 ovarian) of the same molecule?
A: > 100 µM

Q: What about the GI50 (K-562 leukemia) of the same molecule?
A: 3.25 µM

Q: What about the TGI (K-562 leukemia) of the same molecule?
A: > 100 µM

Q: And the GI50 (SK-OV-3 ovarian)?
A: 86.1 µM

Q: And the TGI (SK-OV-3 ovarian)?
A: > 100 µM

Q: What about the GI50 (SK-MEL-5 melanoma) of the same molecule?
A: 11.2 µM

Q: And the TGI (SK-MEL-5 melanoma)?
A: > 100 µM

Q: And the GI50 (EKVX NSCLC)?
A: 41 µM

Q: And the TGI (EKVX NSCLC)?
A: > 100 µM

Q: What about the GI50 (SF-539 CNS) of the same molecule?
A: 11.6 µM

Q: And the TGI (SF-539 CNS)?
A: > 100 µM

Q: What about the GI50 (OVCAR-5 ovarian) of the same molecule?
A: 87.8 µM

Q: What about the TGI (OVCAR-5 ovarian) of the same molecule?
A: > 100 µM

Q: What about the GI50 (SNB-75 CNS) of the same molecule?
A: 11.9 µM

Q: What about the TGI (SNB-75 CNS) of the same molecule?
A: > 100 µM

Q: And the GI50 (HCC-2998 colon)?
A: 29.3 µM

From PubChem BioAssay (NCI)
